In general, Km refers to the substrate concentration at which the rate is half of its maximum.

Common to all, as to type: functional, cell-based
Data set [1] deals with T1, Solute carrier organic anion transporter family member 1A1 (Rattus norvegicus, UniProt P46720).
T1 sequence (P46720 whole entry): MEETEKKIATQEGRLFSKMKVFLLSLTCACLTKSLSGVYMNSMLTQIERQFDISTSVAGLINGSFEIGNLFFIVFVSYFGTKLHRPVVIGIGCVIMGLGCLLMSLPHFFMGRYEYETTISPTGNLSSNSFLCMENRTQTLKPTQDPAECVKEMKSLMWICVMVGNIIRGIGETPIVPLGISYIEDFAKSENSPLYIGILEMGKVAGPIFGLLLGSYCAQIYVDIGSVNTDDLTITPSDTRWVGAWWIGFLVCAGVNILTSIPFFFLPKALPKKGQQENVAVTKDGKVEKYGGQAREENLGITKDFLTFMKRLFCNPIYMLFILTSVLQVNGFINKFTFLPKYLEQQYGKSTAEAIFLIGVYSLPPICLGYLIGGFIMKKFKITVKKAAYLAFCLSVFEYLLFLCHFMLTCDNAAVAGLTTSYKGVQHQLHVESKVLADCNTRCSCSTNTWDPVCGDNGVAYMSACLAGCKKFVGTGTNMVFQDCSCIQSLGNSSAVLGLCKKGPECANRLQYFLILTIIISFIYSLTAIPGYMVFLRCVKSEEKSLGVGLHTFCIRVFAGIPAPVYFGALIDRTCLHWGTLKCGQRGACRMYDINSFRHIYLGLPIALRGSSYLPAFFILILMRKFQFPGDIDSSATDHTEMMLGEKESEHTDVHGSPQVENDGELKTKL
The experiment in a line: (§1) TP_TRANSPORTER: uptake in Oatp1-expressing HeLa cells. The following applies: human.

Substrate in data set [2]: C[C@H](CCC(=O)NCCS(=O)(=O)O)C1CC[C@H]2[C@@H]3C[C@H](O)[C@@H]4C[C@H](O)CC[C@]4(C)[C@H]3CC[C@]12C
Described as §1.

Substrate in data set [3]: O=C1OC(c2ccc(O)c(S(=O)(=O)O)c2)(c2ccc(O)c(S(=O)(=O)O)c2)c2c(Br)c(Br)c(Br)c(Br)c21
The description is as §1.

Substrate in data set [4]: C[C@H](CCC(=O)NCCS(=O)(=O)O)[C@H]1CC[C@H]2[C@@H]3[C@H](O)C[C@@H]4C[C@H](O)CC[C@]4(C)[C@H]3CC[C@]12C
The data set is described as §1.

With `C[C@H](CCC(=O)O)[C@H]1CC[C@H]2[C@@H]3C[C@H](O)[C@@H]4C[C@H](O)CC[C@]4(C)[C@H]3CC[C@]12C` [HYODEOXYCHOLIC_ACID], the Activity result in data set [1] is “substrate [+]”.
On to `C[C@H](CCC(=O)NCCS(=O)(=O)O)[C@H]1CC[C@H]2[C@@H]3CC[C@H]4C[C@H](O)CC[C@]4(C)[C@H]3C[C@@H](O)[C@]12C` [TAUROLAGODEOXYCHOLATE], for which the Activity result in data set [1] is “substrate [+]”.
With `C[C@H](CCC(=O)NCCS(=O)(=O)O)[C@H]1CC[C@H]2[C@@H]3C[C@@H](O)[C@@H]4C[C@H](O)CC[C@]4(C)[C@H]3CC[C@]12C` [TAUROMUROCHOLATE], the Activity result in data set [1] was “substrate [+]”.

B1: Solute carrier organic anion transporter family member 1A1 (Rattus norvegicus) (protein)
chain: T1 sequence (P46720 whole entry)
As for B1, the Km in data set [2] is 7.5 µM; in data set [3], 3.3 µM; in data set [4], 4.9 µM.

Source of the values: ChEMBL document CHEMBL2074541, “TP-search Transporter Database” (Hepatology, 1999).
